In publication PMC9965590, “Development of Computational In Silico Model for Nano Lipid Carrier Formulation of Curcumin” (Molecules, 2023):

Legend:
[1] = In vitro gut permeation study; assay type: in vitro ADME; settings: after 8 h
Method: The experimental protocol was approved by the Institutional Animal Ethical Committee (IAEC) with approval number CPCSEA/IAEC/JLS/16/9/21/13. Experiments on a fasted Wistar rat’s (weighing 250–300 g) small intestine were conducted in a laboratory setting. An intestinal segment was removed from a dead rat after euthanasia using CO2 inhalation and it was cut into lengths of 6–7 cm. […] In a beaker heated to 37 °C, the sac was submerged in an oxygenated Krebs Ringer solution (20 mL). The sink was maintained by removing and replacing aliquots of 1 mL every 0.5, 1, 1.5, 2, and 8 h with an equivalent volume of warm Krebs Ringer solution heated to 37 °C. Each aliquot’s medication concentration was measured using HPLC (n = 3). The HPLC system is equipped through a Shimadzu LC-10AD VP pump, a C18 Agilent column (Inertsil, 150 mm × 4.66 mm, […]), and a flow rate of 1 mL/min; the mobile phase has been degassed. It is made up of an acetonitrile, water, and methanol (50:10:40) ratio. The detector wavelength was set at 425 nm. The injection volume was 10 µL. The samples were measured after diluting suitably with methanol. Each formulation’s flow and permeability coefficients were calculated.
Papp(cm/sec)=(DQ/dt)(AxCO)

[2] = Actual solubility of curcumin in lipids (laboratory experiment); assay type: physicochemical
Description: Table 2 Predicted versus actual results of curcumin solubility in different lipids. | column: Actual Solubility (mg/g)

[3] = In vitro drug release (dialysis bag, phosphate buffer pH 6.8, 37 °C); assay type: physicochemical
Method: The in vitro drug release research was conducted at 37 °C for 24 h in a phosphate buffer (pH 6.8).
The dialysis bag’s molecular weight threshold of 12–14 KDa was used to determine the in vitro drug release from the formulations [35, 82]. […] Regularly, new dissolution medium samples were taken from the dissolution medium and replaced. A volumetric flask filled with 10 Ml of methanol was treated with 1 mL of the filtrate after it was filtered through Whatman filter paper No. 1. As needed, additional dilutions were made. A spectrophotometric technique was used to analyze the materials. Calculations were made with the Korsmeyer and Peppas model and the PCP Disso Version 2.08 programmed [83, 84, 85, 86, 87, 88] to determine the time needed for 50 and 85% drug release, respectively.

Structure (SMILES): COc1cc(/C=C/C(=O)CC(=O)/C=C/c2ccc(O)c(OC)c2)ccc1O [curcumin, Curcumin]
- Papp at 8 h ([1]; Wistar, rat gut, mucosal to serosal): 4.88 ×10⁻⁶ cm/s
- permeability through the rat gut [1]: 6.83 ± 1.53 mcg/cm^2/h
- permeability and penetration release rate in the intestine and the gut ([1]; as printed in Conclusions): 6.83 ± 1.53 mg/cm^2/h
- Actual Solubility ([2]; in liquid lipid Castor oil): 3.52 ± 0.52 mg/g
- Actual Solubility ([2]; in liquid lipid Corn oil): 1.06 ± 0.15 mg/g
- Actual Solubility ([2]; in liquid lipid Grape seeds oil): 0.59 ± 0.64 mg/g
- Actual Solubility ([2]; in liquid lipid Oleic acid): 4.61 ± 0.13 mg/g
- Actual Solubility ([2]; in liquid lipid Olive oil): 3.48 ± 0.34 mg/g
- Actual Solubility ([2]; in liquid lipid Soybean oil): 1.36 ± 0.26 mg/g
- Actual Solubility ([2]; in solid lipid Cetosteryl): 2.06 ± 0.13 mg/g
- Actual Solubility ([2]; in solid lipid GMS): 3.58 ± 0.03 mg/g
- Actual Solubility ([2]; in solid lipid Palmitic acid): 3.28 ± 0.06 mg/g
- Actual Solubility ([2]; in solid lipid Stearic acid): 2.62 ± 0.12 mg/g
- Actual Solubility ([2]; in solid lipid Tri Palmitin): 3.25 ± 0.30 mg/g
- time to dissolve 50% of the curcumin [3]: more than 24 h
